Entries after “also recorded” stand apart in the source; their conditions may differ. Structures can show the parent of a compound that is named as a salt. Where two headings read alike, the source gives them in different places.
Legend:
[1] = test system: antioxidant response element (ARE) signaling pathway; test: ARE-bla β-lactamase reporter gene assay in HepG2 cells (qHTS); type: cell-based, human; details: for EC50: read-out: ARE-bla EC50; for activity in ARE-bla assay (words): follow-up studies, up to 46 µM
[2] = test system: Nrf2-dependent ARE transcriptional activity; test: ARE-luc luciferase reporter gene assay in HepG2 cells (qHTS); type: cell-based; parameters: Emax: reference not given here; details: for EC50: read-out: ARE-luc EC50
[3] = test system: mutated ARE; type: cell-based
[4] = Homo sapiens, HepG2, read-out: ARE-bla Efficacy
[5] = Homo sapiens, HepG2, read-out: ARE-luc Efficacy
[6] = Homo sapiens, confirmation/follow-up studies, HepG2, 16 hr exposure, mean ± SD
[7] = confirmation/follow-up studies, HepG2, mean ± SD
[8] = Homo sapiens, HepG2, confirmation/follow-up studies, activation of ARE reporter as % of positive control (β-napthoflavone), read-out: ARE-bla Efficacy
[9] = Homo sapiens, HepG2, confirmation/follow-up studies, activation of ARE reporter as % of positive control (β-napthoflavone), read-out: ARE-luc Efficacy
[10] = confirmation/follow-up studies, HepG2, 16 hr exposure, mean ± SD
[11] = confirmation/follow-up studies, activation of ARE reporter as % of positive control (β-napthoflavone)
[12] = primary qHTS screening, 0.59 nM to 92 µM
[13] = confirmation/follow-up studies, […]

CN(C)c1ccc(N=O)cc1 [N,N-Dimethyl-p-nitrosoaniline]
EC50 ([1]; Homo sapiens, HepG2, 16 h): 9.9 ± 3.4 µM | Emax [1, 4]: 82% | EC50 ([2]; Homo sapiens, HepG2, 16 h): 29.2 ± 2 µM | Emax [2, 5]: 626% | ARE-bla mutant IC50 [3]: inactive

CN(C)c1ccc(N)cc1 [N,N-Dimethyl-p-phenylenediamine]
Emax ([1]; Homo sapiens, HepG2, confirmation/follow-up studies, […], read-out: ARE-bla Efficacy): 80% | EC50 [1, 6]: 9.6 ± 0.6 µM | Emax ([2]; Homo sapiens, HepG2, confirmation/follow-up studies, […], read-out: ARE-luc Efficacy): 24% | EC50 [2, 6]: 11.8 ± 4.4 µM | ARE-bla mutant IC50 [3, 7]: inactive

CNc1ccc(O)cc1 [N-Methyl-p-aminophenol sulfate]
Emax [1, 8]: 37% | EC50 [1, 6]: 13.6 ± 3.2 µM | Emax [2, 9]: 202% | EC50 [2, 6]: 24.6 ± 9.2 µM | ARE-bla mutant IC50 [3]: inactive

NC(=S)Nc1ccccc1 [Phenylthiourea]
ARE-bla EC50 [1, 10]: inactive | ARE-luc EC50 [2, 10]: inactive | ARE-bla mutant IC50 [3, 7]: inactive

c1ccc2ncccc2c1 [Quinoline]
ARE-bla EC50 [1, 10]: inactive | activity in ARE-bla assay (words) [1]: inactive in all assays | activity in ARE-bla assay (words) ([1]; listed as quinoline): inactive across all assays | ARE-luc EC50 [2, 10]: inactive | activity in ARE-luc assay (words) ([2]; follow-up studies, up to 46 µM): inactive in all assays | activity in ARE-luc assay (words) ([2]; follow-up studies, up to 46 µM, listed as quinoline): inactive across all assays | ARE-bla mutant IC50 [3]: inactive | activity in ARE-bla-mut assay (words) [3]: inactive across all assays; also recorded: inactive in all assays

Clc1ccc(C(c2ccc(Cl)cc2)C(Cl)Cl)cc1 [Rhothane (TDE), Tetrachlorodiphenylethane]
EC50 [1, 10]: 16.4 ± 7.3 µM | ARE-bla Efficacy [1, 11]: 43% | EC50 [2, 10]: 13.5 ± 3.3 µM | ARE-luc Efficacy [2, 11]: 32% | activity in ARE-luc assay (words) ([2]; follow-up studies, up to 46 µM): active | activity in ARE-luc assay (words) [2, 12]: inactive | ARE-bla mutant IC50 [3, 7]: inactive

C[C@H](CCC(=O)[O-])[C@H]1CC[C@H]2[C@@H]3[C@H](O)C[C@@H]4C[C@H](O)CC[C@]4(C)[C@H]3C[C@H](O)[C@]12C.[Na+] [Sodium Cholate]
ARE-bla EC50 [1, 10]: inactive | ARE-luc EC50 [2, 10]: inactive | ARE-bla mutant IC50 [3, 7]: inactive

O=c1n(CC2CO2)c(=O)n(CC2CO2)c(=O)n1CC1CO1 (centres unmarked) [Teroxironum]
ARE-bla Efficacy [1]: 119 | EC50 [1]: 5.9 ± 1.9 µM | ARE-luc Efficacy [2]: 1541 | EC50 [2]: 27.1 ± 1.8 µM | ARE-bla mutant IC50 [3]: inactive

C=CC(=O)OCCOCCOCCOCCOC(=O)C=C [Tetraethylene glycol diacrylate]
Emax [1, 8]: 53% | EC50 [1, 6]: 9.5 ± 4.8 µM | Emax [2, 9]: 288% | EC50 [2, 6]: 29.2 ± 2 µM | ARE-bla mutant IC50 [3, 7]: inactive

CN(C)C(=S)SSC(=S)N(C)C [Tetramethylthiuram disulfide]
EC50 [1, 10]: 17.2 ± 4.9 µM | ARE-bla Efficacy [1, 13]: 35% | EC50 [2, 10]: 30.6 ± 5.2 µM | ARE-luc Efficacy [2, 13]: 265% | ARE-bla mutant IC50 [3, 7]: inactive

CC(C)CC(C)Nc1ccc(Nc2ccccc2)cc1 (centres unmarked) [n-(1,3-Dimethylbutyl)-n`-phenyl-p-phenylenediamine]
Emax [1, 8]: 89% | EC50 [1, 6]: 17.3 ± 5 µM | activity in ARE-luc assay (words) ([2]; follow-up studies, up to 46 µM): inactive | activity in ARE-luc assay (words) [2, 12]: active | ARE-bla mutant IC50 [3, 7]: inactive

Nc1ccccc1O [o-Aminophenol]
EC50 ([1]; Homo sapiens, HepG2, 16 h): 6.8 ± 4.1 µM | Emax [1, 4]: 95% | EC50 ([2]; Homo sapiens, HepG2, 16 h): 26.2 ± 3.3 µM | Emax [2, 5]: 234% | ARE-bla mutant IC50 [3]: inactive

Nc1ccccc1N [o-Phenylenediamine]
EC50 [1, 10]: 7.2 ± 4.1 µM | ARE-bla Efficacy [1, 13]: 72% | EC50 [2, 10]: 27.3 ± 4.7 µM | ARE-luc Efficacy [2, 13]: 151% | ARE-bla mutant IC50 [3, 7]: inactive

ClC(Cl)=C(c1ccc(Cl)cc1)c1ccc(Cl)cc1 [p,p' -DDE, Dichlorodiphenyl dichloroethylene]
ARE-bla EC50 [1, 10]: inactive | ARE-luc EC50 [2, 10]: inactive | ARE-bla mutant IC50 [3, 7]: inactive

O=Nc1ccc(Nc2ccccc2)cc1 [p-Nitrosodiphenylamine]
ARE-bla Efficacy [1]: 31 | EC50 [1]: 9.7 ± 4.1 µM | ARE-luc Efficacy [2]: 71 | EC50 [2]: 21.7 ± 3.7 µM | ARE-bla mutant IC50 [3]: inactive

Source: paper PMC3440086, “Profiling Environmental Chemicals for Activity in the Antioxidant Response Element Signaling Pathway Using a High Throughput Screening Approach” (Environmental Health Perspectives, 2012)
